Assay results taken from patent EP0908457B1, “3-(1,2-benzisothiazol- and isoxazol-5-Y1)-2,4(1H,3H)-pyrimidinedione or thione and 3-(1,2-benzisothiazol- and isoxazol-5-y1)-4(3H)-pyrimidinone or thione herbicidal agents” (BASF AKTIENGESELLSCHAFT, priority 1997, dated 1999).

Tests used:
[1] = system: Echinochloa oryzoides (Ard.) Fritsch.; test: Preemergence weed control under flooded paddy conditions, ECHORC (Watergrass (Calif.)); format: in vivo; conditions: preemergence, flooded paddy, rated three to four weeks after treatment
[2] = system: Cyperus iria; test: Preemergence weed control under flooded paddy conditions, CYPIR (Rice Flatsedge); format: in vivo; conditions: preemergence, flooded paddy, rated three to four weeks after treatment
[3] = system: Cyperus serotinus, Rottb.; test: Preemergence weed control under flooded paddy conditions, CYPSE (Flatsedge); format: in vivo; conditions: preemergence, rated three to four weeks after treatment
[4] = system: Monochoria vaginalis, Presl.; test: Preemergence weed control under flooded paddy conditions, MOOVA (Monochoria); format: in vivo; conditions: preemergence, flooded paddy, rated three to four weeks after treatment
[5] = system: Sagittaria pygmaea, L.; test: Preemergence weed control under flooded paddy conditions, SAGPY (Arrowhead (Pygmaea)); format: in vivo; conditions: preemergence, flooded paddy, rated three to four weeks after treatment
[6] = system: Oryza sativa, (L.) Tebonnet; test: Rice tolerance to post-transplant applications under flooded paddy conditions (Example 187), ORYSAT (Rice, Tebonnet); conditions: rated three to four weeks after treatment

SMILES | ECHORC herbicidal effect rating ([1]; Rate 0.0313 kg/ha) | ECHORC herbicidal effect rating ([1]; Rate 0.0625 kg/ha) | ECHORC herbicidal effect rating ([1]; Rate 0.1250 kg/ha) | ECHORC herbicidal effect rating ([1]; Rate 0.2500 kg/ha) | CYPIR herbicidal effect rating ([2]; Rate 0.0313 kg/ha) | CYPIR herbicidal effect rating ([2]; Rate 0.0625 kg/ha) | CYPIR herbicidal effect rating ([2]; Rate 0.1250 kg/ha) | CYPSE herbicidal effect rating ([3]; Rate 0.0313 kg/ha) | CYPSE herbicidal effect rating ([3]; Rate 0.0625 kg/ha) | CYPSE herbicidal effect rating ([3]; Rate 0.1250 kg/ha) | CYPSE herbicidal effect rating ([3]; Rate 0.2500 kg/ha) | MOOVA herbicidal effect rating ([4]; Rate 0.0313 kg/ha) | MOOVA herbicidal effect rating ([4]; Rate 0.0625 kg/ha) | MOOVA herbicidal effect rating ([4]; Rate 0.1250 kg/ha) | MOOVA herbicidal effect rating ([4]; Rate 0.2500 kg/ha) | SAGPY herbicidal effect rating ([5]; Rate 0.0313 kg/ha) | SAGPY herbicidal effect rating ([5]; Rate 0.0625 kg/ha) | SAGPY herbicidal effect rating ([5]; Rate 0.1250 kg/ha) | SAGPY herbicidal effect rating ([5]; Rate 0.2500 kg/ha) | ORYSAT herbicidal effect rating ([6]; Rate 0.0313 kg/ha) | other results
C=C(C)C1CC=C(COCc2nsc3ccc(-n4c(=O)ccn(C)c4=O)cc23)CC1 (centres unmarked) [Example 211, 1-Methyl-3-{3-{{[4-(1-methylvinyl)-1-cyclohexen-1-yl]methoxy}methyl}-1,2-benzisothiazol-5-yl}-2,4(1H,3H)-pyrimidinedione] | 2.0 | 4.0 | 7.0 | 9.0 | 0.0 | 0.0 | 4.0 | 0.0 | 0.0 | 0.0 | 0.0 | 9.0 | 9.0 | 9.0 | 9.0 | 0.0 | 0.0 | 0.0 | 0.0 | 2.0 | CYPIR herbicidal effect rating ([2]; Rate 0.2500 kg/ha): 4.0; ORYSAT herbicidal effect rating ([6]; Rate 0.0625 kg/ha): 2.0; ORYSAT herbicidal effect rating ([6]; Rate 0.1250 kg/ha): 2.0; ORYSAT herbicidal effect rating ([6]; Rate 0.2500 kg/ha): 3.0
C=C(C(=O)OC)C(C)OCc1nsc2ccc(-n3c(=O)cc(C(F)(F)F)n(C)c3=O)cc12 (centres unmarked) [Example 212, Methyl 3-{{5-[3,6-dihydro-3-methyl-2,6-dioxo-4-(trifluoromethyl)-1(2H)-pyrimidinyl]-1,2-benzisothiazol-3-yl}methoxy}-2-methylenebutyrate] | 0.0 | 0.0 | 2.0 | 4.0 | 0.0 | 0.0 | 0.0 | 0.0 | 0.0 | 0.0 | 0.0 | 4.0 | 8.0 | 9.0 | 9.0 | 0.0 | 0.0 | 0.0 | 0.0 | 3.0 | CYPIR herbicidal effect rating ([2]; Rate 0.2500 kg/ha): 2.0; ORYSAT herbicidal effect rating ([6]; Rate 0.0625 kg/ha): 4.0; ORYSAT herbicidal effect rating ([6]; Rate 0.1250 kg/ha): 6.0; ORYSAT herbicidal effect rating ([6]; Rate 0.2500 kg/ha): 7.0
Cc1nsc2ccc(-n3c(=O)cc(C(F)(F)F)n(CC#N)c3=O)cc12 [Example 213, 3,4-Dihydro-3-(3-methyl-1,2-benzisothiazol-5-yl)-2,4-dioxo-6-(trifluoromethyl)-1(2H)-pyrimidineacetonitrile] | 0.0 | 0.0 | 0.0 | 0.0 | 0.0 | 0.0 | 0.0 | 0.0 | 0.0 | 0.0 | 0.0 | 0.0 | 0.0 | 0.0 | 2.0 | 0.0 | 0.0 | 0.0 | 0.0 | 3.0 | ORYSAT herbicidal effect rating ([6]; Rate 0.0625 kg/ha): 4.0; ORYSAT herbicidal effect rating ([6]; Rate 0.1250 kg/ha): 6.0; ORYSAT herbicidal effect rating ([6]; Rate 0.2500 kg/ha): 7.0
C#CCn1c(C(F)(F)F)cc(=O)n(-c2ccc3snc(C)c3c2)c1=O [Example 217, 3-(3-Methyl-1,2-benzisothiazol-5-yl)-1-(2-propynyl)-6-(trifluoromethyl)-2,4(1H,3H)-pyrimidinedione] | 0.0 | 0.0 | 0.0 | 0.0 | 0.0 | 0.0 | 0.0 | 0.0 | 0.0 | 0.0 | 0.0 | 2.0 | 4.0 | 7.0 | 7.0 | 0.0 | 0.0 | 0.0 | 0.0 | 2.0 | CYPIR herbicidal effect rating ([2]; Rate 0.2500 kg/ha): 0.0; ORYSAT herbicidal effect rating ([6]; Rate 0.0625 kg/ha): 2.0; ORYSAT herbicidal effect rating ([6]; Rate 0.1250 kg/ha): 3.0; ORYSAT herbicidal effect rating ([6]; Rate 0.2500 kg/ha): 4.0
Cc1nsc2ccc(-n3c(=O)cc(C(F)(F)F)n(Cc4ccccc4)c3=O)cc12 [Example 218, 1-Benzyl-3-(3-methyl-1,2-benzisothiazol-5-yl)-6-(trifluoromethyl)-2,4(1H,3H)-pyrimidinedione] | 0.0 | 0.0 | 2.0 | 4.0 | 0.0 | 0.0 | 0.0 | 0.0 | 0.0 | 0.0 | 0.0 | 8.0 | 9.0 | 9.0 | 9.0 | 0.0 | 0.0 | 0.0 | 0.0 | 1.0 | CYPIR herbicidal effect rating ([2]; Rate 0.2500 kg/ha): 0.0; ORYSAT herbicidal effect rating ([6]; Rate 0.0625 kg/ha): 2.0; ORYSAT herbicidal effect rating ([6]; Rate 0.1250 kg/ha): 3.0; ORYSAT herbicidal effect rating ([6]; Rate 0.2500 kg/ha): 3.0
C=CCCOCc1nsc2ccc(-n3c(=O)cc(C(F)(F)F)n(C)c3=O)cc12 [Example 223, 3-{3-[(3-Butenyloxy)methyl]-1,2-benzisothiazol-5-yl}-1-methyl-6-(trifluoromethyl)-2,4(1H,3H)-pyrimidinedione] | 6.0 | 6.0 | 8.0 | 9.0 | 4.0 | 7.0 | 7.0 | 0.0 | 4.0 | 6.0 | 8.0 | 9.0 | 9.0 | 9.0 | 9.0 | 0.0 | 2.0 | 6.0 | 9.0 | 7.0 | CYPIR herbicidal effect rating ([2]; Rate 0.2500 kg/ha): 9.0; ORYSAT herbicidal effect rating ([6]; Rate 0.0625 kg/ha): 8.0; ORYSAT herbicidal effect rating ([6]; Rate 0.1250 kg/ha): 8.0; ORYSAT herbicidal effect rating ([6]; Rate 0.2500 kg/ha): 9.0
